From patent US20080109040A1, “METHOD OF TREATING ARRHYTHMIAS” (priority 2002, published 2008)
Entries after “also recorded” stand apart in the source; their conditions may differ.

System: guinea pig ventricular myocytes
Test: Action potential duration, EADs and triggered activity in guinea pig ventricular myocytes
Details: for Reduction of ATX-II-induced prolongation of APD50: ATX-II 10-20 nmol/L; for Attenuation of ATXII-induced prolongation of APD50: ATXII 10-40 nmol/L
Description: Single ventricular myocytes were isolated from the hearts of adult, male guinea pigs (Harlan). In brief, the hearts were perfused with warm (35° C.) and oxygenated solutions in the following order: 1) Tyrode solution containing (in mmol/L) 140 NaCl, 4.6 KCl, 1.8 CaCl2, 1.1 MgSO4, 10 glucose and 5 HEPES, pH 7.4, for 5 minutes; 2) Ca^2+-free solution containing (in mmol/L) 100 NaCl, 30 KCl, 2 MgSO4, 10 glucose, 5 HEPES, 20 taurine, and 5 pyruvate, pH 7.4, for 5 minutes; and 3) Ca^2+-free solution containing sollagenase (120 units/ml) and albumin (2 mg/ml), for 20 minutes. At the end of the perfusion, the ventricles were removed, minced, and gently shaken for 10 minutes in solution #3. Isolated cells were harvested from the cell suspension.
Myocytes were placed into a recording chamber and superfused with Tyrode solution at 35° C. Drugs were applied via the superfusate. Action potentials were measured using glass microelectrodes filled with a solution containing (in mmol/L) 120 K-aspartate, 20 KCl, 1 MgCl2, 4 Na2ATP, 0.1 Na3GTP, 10 glucose, 1 EGTA and 10 HEPES (pH 7.2). Microelectrode resistance was 1-3 MΩ. An Axopatch-200 amplifier, a DigiData-1200A interface and pCLAMP6 software were used to perform electrophysiological measurements. Action potentials were induced by 5-ms depolarizing pulses applied at various frequencies as indicated. The duration of action potential was measured at 50% (APD50) and 90% (APD90) repolarization.
1) Ventricular myocytes were electrically stimulated at a frequency of 0.5, 1 or 2 Hz. Each myocyte was treated with 3, 10 and 30 μmol/L ranolazine. The effect of ranolazine on action potential duration at each pacing frequency was determined from 4 myocytes.
2) Action potentials were elicited at a frequency of 0.25 Hz, and the effect of ranolazine (10 μmol/L) on action potential duration was examined in the presence of 5 μmol/L quinidine. Experiments were performed on 4 myocytes.
Following the procedures and protocols of Example 21, guinea pig ventricular myocytes were electrically stimulated in the presence of ranolazine either alone or in the presence of ATX II [a sea anemone toxin known to mimic LQT3 syndrome by slowing Na^+-channel inactivation from the open state and thereby increasing the peak and late Na^+ current (INa) of cardiomyocytes]. ATXII is known to induce early afterdepolarizations (EADs) and triggered activity and ventricular tachycardia.
Action potentials were recorded using the whole-cell patch-electrode technique. Ventricular monophasic action potentials and electrograms were recorded from isolated hearts.
The ventricular APD of guinea pigs isolated myocytes and hearts was measured, respectively, at 50% (APD50) and 90% (MAPD90) repolarization.

[1] = ranolazine 10 μmol/L, ATX-II plus either E-4031 or 293B

COc1ccccc1OCC(O)CN1CCN(CC(=O)Nc2c(C)cccc2C)CC1 (racemic) [ranolazine, N-(2,6-dimethylphenyl)-4-[2-hydroxy-3-(2-methoxyphenoxy)propyl]-1-piperazineacetamide]
Reduction of ATX-II-induced prolongation of APD50 (ranolazine 0.1 μmol/L): 29±1%
Reduction of ATX-II-induced prolongation of APD50 (ranolazine 0.3 μmol/L): 47±1%
Reduction of ATX-II-induced prolongation of APD50 (ranolazine 1 μmol/L): 63±3%
Attenuation of ATXII-induced prolongation of APD50 (ranolazine 1 μmol/L): 60±4%
Reduction of ATX-II-induced prolongation of APD50 (ranolazine 3 μmol/L): 79±1%
Attenuation of ATXII-induced prolongation of APD50 (ranolazine 3 μmol/L): 80±2%
Reduction of ATX-II-induced prolongation of APD50 (ranolazine 10 μmol/L): 86±2%
Effect on EADs [1]: completely abolished the EADs
Reversal of the prolongation of APD50 [1]: about 70%
Attenuation of ATXII-induced prolongation of APD50 (ranolazine 10 μmol/L): 86±2%
Suppression of quinidine-induced EADs and triggered activity (ranolazine 10 μmol/L, quinidine 2.5 μmol/L): effective in suppressing EADs; also recorded: effective in suppressing triggered activity; also recorded: suppressed EADs and TA
Effect on quinidine-induced action potential prolongation (ranolazine 10 μmol/L, quinidine 5 μmol/L, 0.25 Hz): attenuated the effect of quinidine
Reduction of ATX-II-induced prolongation of APD50 (ranolazine 30 μmol/L): 99±1%
Attenuation of ATXII-induced prolongation of APD50 (ranolazine 30 μmol/L): 99±1%
Effect on APD50 and APD90 (ranolazine 3, 10, 30 μmol/L, 0.5, 1, 2 Hz): moderate and concentration-dependent shortening
